We go through 2 molecules from US9127040B2, “Regulation of sodium channels by PLUNC proteins” (The University of North Carolina at Chapel Hill, priority 2011, dated 2015).

One assay concerns CF HBECs. Conditions: Ringer with 50 mM NaCl exchanged for 100 mM POPSO; 3 h.
The test system of a further assay is NL HBECs. The experiment in a line: ASL height by confocal microscopy in normal lung (NL) HBECs. In kind it is cell-based, human. The conditions noted are these: Ringer with 50 mM NaCl exchanged for 100 mM POPSO; 3 h. The protocol: To label airway surface liquid, Ringer containing Texas Red-dextran (2 mg/ml; Invitrogen) was added to human bronchial epithelial culture mucosal surfaces. Perfluorocarbon was added mucosally to prevent evaporation of the airway surface liquid and the culture placed in a chamber containing 100 μl Ringer on the stage of a Leica SP5 confocal microscope with a 63× glycerol immersion objective. 5 points per culture were scanned and an average airway surface liquid height determined. For confocal microscopy human bronchial epithelial cultures were bathed serosally in a modified Ringer solution containing (mM): 116 NaCl, 10 NaHCO3, 5.1 KCl, 1.2 CaCl2, 1.2 MgCl2, 20 TES, 10 glucose, pH 7.4). At all other times, human bronchial epithelial cultures were maintained in a modified BEGM growth medium which contained 24 mM NaHCO3 gassed with 5% CO2.
To label the ASL, PBS containing 10 kDa Rhodamine dextran (0.2-2 mg/mL; Invitrogen, Carlsbad, Calif., USA) was added to HBEC mucosal surfaces as previously described (Tarran et al., Mol. Cell 8:149 (2001)). When added, peptides with or without 100 nM neutrophil elastase, 1 U/mL aprotinin, activated neutrophil supernatant (ANS) (Haynes et al., Am. J. Physiol. Heart Circ. Physiol. 294:H379 (2008)) or 10 μM sivelestat (Sigma-Aldrich, St Louis, Mo., USA) were added to the mucosal surface along with the Rhodamine dextran. Bumetanide (100 μM) was added to the serosal solution.

In another assay the target is T1, αβγENaC (Rattus norvegicus, UniProt P37089+P37090+P37091).
T1 construct: expressed in transfected cells; host or cells: Xenopus laevis oocytes (cRNA injection)
T1 sequence (P37089 1-698): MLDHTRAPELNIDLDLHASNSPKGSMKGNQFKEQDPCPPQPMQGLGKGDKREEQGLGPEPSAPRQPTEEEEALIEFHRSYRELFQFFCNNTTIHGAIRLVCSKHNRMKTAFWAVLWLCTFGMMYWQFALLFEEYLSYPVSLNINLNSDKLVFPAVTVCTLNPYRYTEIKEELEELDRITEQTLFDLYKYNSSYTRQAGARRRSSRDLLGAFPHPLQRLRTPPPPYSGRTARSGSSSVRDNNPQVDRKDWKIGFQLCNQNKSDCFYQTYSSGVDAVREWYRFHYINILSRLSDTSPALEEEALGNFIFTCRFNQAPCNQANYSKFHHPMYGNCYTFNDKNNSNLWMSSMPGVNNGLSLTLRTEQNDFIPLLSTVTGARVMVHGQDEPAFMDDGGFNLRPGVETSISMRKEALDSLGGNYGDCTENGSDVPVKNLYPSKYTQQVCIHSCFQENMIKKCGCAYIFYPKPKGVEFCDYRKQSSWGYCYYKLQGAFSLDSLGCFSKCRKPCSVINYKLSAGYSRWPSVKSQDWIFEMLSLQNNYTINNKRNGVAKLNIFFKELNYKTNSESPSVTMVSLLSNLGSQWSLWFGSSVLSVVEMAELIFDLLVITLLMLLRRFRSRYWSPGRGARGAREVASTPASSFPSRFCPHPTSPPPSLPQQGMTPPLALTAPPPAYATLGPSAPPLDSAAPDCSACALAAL
T1 sequence (P37090 1-638): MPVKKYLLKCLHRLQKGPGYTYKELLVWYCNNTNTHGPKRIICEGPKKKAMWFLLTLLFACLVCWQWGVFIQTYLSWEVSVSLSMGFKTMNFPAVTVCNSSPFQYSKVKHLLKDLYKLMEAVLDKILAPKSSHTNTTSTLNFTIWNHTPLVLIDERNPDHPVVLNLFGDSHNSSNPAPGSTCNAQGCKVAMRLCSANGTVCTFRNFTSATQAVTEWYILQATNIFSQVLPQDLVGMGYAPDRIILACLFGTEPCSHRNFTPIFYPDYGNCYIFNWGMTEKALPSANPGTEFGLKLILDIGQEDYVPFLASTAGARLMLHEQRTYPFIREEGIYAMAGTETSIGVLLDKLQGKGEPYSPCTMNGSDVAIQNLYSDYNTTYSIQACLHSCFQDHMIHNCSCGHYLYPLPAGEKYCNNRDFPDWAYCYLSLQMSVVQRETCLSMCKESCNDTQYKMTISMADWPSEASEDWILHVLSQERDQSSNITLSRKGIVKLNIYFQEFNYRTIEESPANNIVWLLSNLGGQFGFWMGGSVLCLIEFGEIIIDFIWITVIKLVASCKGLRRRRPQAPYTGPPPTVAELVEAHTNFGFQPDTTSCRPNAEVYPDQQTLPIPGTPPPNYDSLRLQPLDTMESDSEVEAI
T1 sequence (P37091 1-650): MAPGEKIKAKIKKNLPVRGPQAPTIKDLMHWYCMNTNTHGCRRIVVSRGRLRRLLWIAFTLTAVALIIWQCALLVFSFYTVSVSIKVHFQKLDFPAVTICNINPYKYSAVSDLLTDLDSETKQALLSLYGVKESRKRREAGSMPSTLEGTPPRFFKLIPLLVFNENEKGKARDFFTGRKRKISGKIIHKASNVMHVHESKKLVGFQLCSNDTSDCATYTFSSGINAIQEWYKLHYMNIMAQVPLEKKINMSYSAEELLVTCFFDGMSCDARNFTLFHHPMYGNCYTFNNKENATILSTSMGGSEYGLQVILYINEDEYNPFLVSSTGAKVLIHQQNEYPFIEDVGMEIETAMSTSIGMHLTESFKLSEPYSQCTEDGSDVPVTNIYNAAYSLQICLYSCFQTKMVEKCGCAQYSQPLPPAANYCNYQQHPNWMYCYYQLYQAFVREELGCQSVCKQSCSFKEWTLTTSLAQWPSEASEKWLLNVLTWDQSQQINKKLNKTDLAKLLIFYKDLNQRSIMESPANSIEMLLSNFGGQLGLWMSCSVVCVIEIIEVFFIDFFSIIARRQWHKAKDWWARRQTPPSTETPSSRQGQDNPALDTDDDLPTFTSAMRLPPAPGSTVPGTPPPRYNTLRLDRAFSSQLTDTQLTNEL
The experiment in a line: Amiloride-sensitive whole cell current, two electrode voltage clamp, Xenopus laevis oocytes expressing αβγENaC. In kind it is cell-based. Conditions: PLUNC family member co-expressed with α,β,γ ENaC. The protocol:
Xenopus laevis oocytes were harvested and injected as described (Donaldson, et al., J. Biol. Chem. 277:8338 (2002)). Defolliculated healthy stage V-VI oocytes were injected with 0.3 ng of CRNA of each ENaC subunit. Injected oocytes were kept in modified Barth's saline (in mM: 88 NaCl, 1 KCl, 2.4 NaHCO3, 0.3 Ca(NO3)2, 0.41 CaCl2, 0.82 MgSO4, and 15 HEPES, adjusted to pH 7.35 with Tris). Oocytes were studied 24 hr after injection using the two electrode voltage clamp technique as previously described (Donaldson, et al., J. Biol. Chem. 277:8338 (2002)). Oocytes were clamped at a holding potential of −60 mV. The change in amiloride-sensitive whole cell current as an indicator of ENaC activity was determined by subtracting the corresponding current value measured in the presence of 10 μM amiloride from that measured before the application of amiloride. Where appropriate, oocytes were incubated with G22-A39 or ABC for 1 h prior to recording. In some experiments β-ENaC^S518C was used which forms ENaCs that are locked into an open probability near 1.0 by exposure to the sulthydral reactive reagent [2-(Trimethyl-ammonium)ethyl]methanethiosulphonate bromide (MTSET). MTSET was added at a concentration of 1 mM to the oocyte bath as previously described (Snyder, J. Clin. Invest. 105: 45 (2000)).
A general note: Two-electrode voltage clamp is typically applied to oocytes expressing channels or transporters.

As to `O=S(=O)(O)CC(O)CN1CCN(CC(O)CS(=O)(=O)O)CC1` (stereo not drawn) [POPSO, reference compound], the “CF ASL height” value with CF HBECs is listed as “significantly elevated”. Moreover, the “NL ASL height” value in the assay on NL HBECs is recorded as “no effect”.

B1: LPLUNC1: long PLUNC family member co-expressed in Xenopus oocytes (protein)
chain: TLSPTAVLILGPKVIKEKLTQELKDHNATSILQQLPLLSAMREKPAGGIPVLGSLVNTVLKHIIWLKVITANILQLQVKPSANDQELLVKIPLDMVAGFNTPLVKTIVEFHMTTEAQATIRMDTSASGPTRLVLSDCATSHGSLRIQLLHKLSFLVNALAKQVMNLLVPSLPNLVKNQLCPVIEASFNGMYADLLQLVKVPISLSIDRLEFDLLYPAIKGDTIQLYLGAKLLDSQGKVTKWFNNSAASLTMPTLDNIPFSLIVSQDVVKAAVAAVLSPEEFMVLLDSVLPESAHRLKSSIGLINEKAADKLGSTQIVKILTQDTPEFFIDQGHAKVAQLIVLEVFPSSEALRPLFTLGIEASSEAQFYTKGDQLILNLNNISSDRIQLMNSGIGWFQPDVLKNIITEIIHSILLPNQNGKLRSGVPVSLVKALGFEAAESSLTKDALVLTPASLWKPSSPVSQ
Consider B1, for which the “amiloride-sensitive ENaC current relative to control, co-expression” value in the assay with αβγENaC is on record as “no significant ENaC current reduction”.
